Data taken from patent EP1561465A2, “Methods of use of fluoroquinolone compounds against bacteria” (LG Life Sciences, Ltd., priority 1999, dated 2001).
In brackets after ≈: the same amount, converted by molar mass. Several values for one entry are separate records, joined by “and”; a condition that tells them apart may be missing. Equal entries are not always repeated. Where two headings read alike, the source gives them in different places.

Tests used:
Format in all cases: cell-based
[1] = system: Klebsiella pneumoniae; assay: MIC by NCCLS reference broth microdilution, 450 respiratory tract pathogens; details: for MIC50 / MIC90: Klebsiella pneumoniae
[2] = system: Streptococcus pneumoniae; assay: MIC by two-fold serial agar dilution, Sensitivity Disk agar-N (Kitasato isolates); details: for MIC90: read-out: MIC90; for MIC: read-out: MIC Range
[3] = system: E. coli; assay: microbe, parasite or virus in culture; details: Escherichia coli
[4] = system: Streptococcus pyogenes; assay: MIC by NCCLS broth microdilution, 1100 Japanese clinical isolates 1997-1998; details: Streptococcus pyogenes (n=51)
[5] = system: Enterococcus faecium; assay: as above; details: for MIC: Enterococcus faecium
[6] = system: Enterococcus gallinarum; assay: as above; details: Enterococcus gallinarum, GALLINARUM, Enterococcus gallinarum (vanC1), read-out: MIC
[7] = system: Klebsiella pneumoniae; assay: as above; details: Klebsiella pneumoniae (n=35)
[8] = system: Klebsiella oxytoca; assay: as above; details: Klebsiella oxytoca (n=40)
[9] = system: Enterobacter aerogenes; assay: as above; details: Enterobacter aerogenes (n=35)
[10] = system: Enterobacter cloacae; assay: as above; details: Enterobacter cloacae (n=40)
[11] = system: Proteus mirabilis; assay: as above; details: Proteus mirabilis (n=30)
[12] = system: Gram negative anaerobic pathogens and facultative anaerobic pathogens; assay: MIC by agar dilution, Brucella HK agar with 5% laked sheep blood, anaerobic reference strains
[13] = extended spectrum β-lactamase negative (n = 30)
[14] = extended spectrum β-lactamase positive (n = 20)

C[C@@H]1CN(c2c(F)c(N)c3c(=O)c(C(=O)O)cn(C4CC4)c3c2F)C[C@H](C)N1 [Sparfloxacin, sparfloxacin]
MIC Range ([1]; Klebsiella pneumoniae (n = 50)): ≤0.0075 to 1 µg/mL | MIC50 ([1]; Klebsiella pneumoniae (n = 50)): 0.06 µg/mL (≈ 0.153 µM) | MIC90 ([1]; Klebsiella pneumoniae (n = 50)): 0.5 µg/mL (≈ 1.27 µM) | MIC50 [1, 13]: 0.03 µg/mL (≈ 0.0765 µM) | MIC90 [1, 13]: 0.12 µg/mL (≈ 0.306 µM) | MIC50 [1, 14]: 0.5 µg/mL (≈ 1.27 µM) | MIC90 [1, 14]: 0.5 µg/mL (≈ 1.27 µM) | MIC Range [1, 13]: ≤0.0075 to 0.25 µg/mL | MIC Range [1, 14]: 0.03 to 0.5 µg/mL | MIC50 ([2]; Ciprofloxacin-susceptible (94)): 0.125 µg/mL (≈ 0.319 µM) | MIC Range ([2]; Minocycline-resistant (37)): 0.125 to 8 µg/mL | MIC50 ([2]; Streptococcus pneumoniae): 0.125 µg/mL (≈ 0.319 µM) | MIC90 ([2]; Streptococcus pneumoniae, 18 h, Ciprofloxacin-resistant (21), ciprofloxacin MIC ≥8 µg/ml): 8 µg/mL (≈ 20.4 µM) | MIC ([2]; Streptococcus pneumoniae, 18 h, Ciprofloxacin-resistant (21)): 0.25 to 8 µg/mL (≈ 0.637 to 20.4 µM) | MIC ([2]; Streptococcus pneumoniae, 18 h, Ciprofloxacin-susceptible (94)): 0.063 to 0.5 µg/mL (≈ 0.161 to 1.27 µM) | MIC ([2]; Streptococcus pneumoniae, 18 h, Penicillin-resistant (19)): 0.063 to 1 µg/mL (≈ 0.161 to 2.55 µM) | MIC ([2]; Streptococcus pneumoniae, 18 h): 0.125 to 8 µg/mL (≈ 0.319 to 20.4 µM) | MIC50 ([2]; Streptococcus pneumoniae, Ciprofloxacin-resistant (21), read-out: MIC50): 4 µg/mL (≈ 10.2 µM) | MIC90 ([2]; Streptococcus pneumoniae, Ciprofloxacin-susceptible (94)): 0.25 µg/mL (≈ 0.637 µM) | MIC50 ([2]; Streptococcus pneumoniae, Erythromycin-resistant (37), read-out: MIC50): 0.25 µg/mL (≈ 0.637 µM) | MIC90 ([2]; Streptococcus pneumoniae, Erythromycin-resistant (37)): 0.5 µg/mL (≈ 1.27 µM) | MIC50 ([2]; Streptococcus pneumoniae, Minocycline-resistant (37), read-out: MIC50): 0.25 µg/mL (≈ 0.637 µM) | MIC90 ([2]; Streptococcus pneumoniae, Minocycline-resistant (37)): 0.5 µg/mL (≈ 1.27 µM) | MIC90 ([2]; Streptococcus pneumoniae, Penicillin-resistant (19)): 0.5 µg/mL (≈ 1.27 µM) | MIC50 ([3]; E. coli (13 strains), quinolone-resistant, read-out: MIC50): 0.125 µg/mL (≈ 0.319 µM) | MIC90 ([3]; E. coli (13 strains), quinolone-resistant, read-out: MIC90): 0.5 µg/mL (≈ 1.27 µM) | MIC ([3]; E. coli KU1029, mutant type SP (spontaneous mutant in the DNA gyrase)): 0.031 µg/mL (≈ 0.079 µM) | MIC ([3]; E. coli KU1030, mutant type SP): 0.063 µg/mL (≈ 0.161 µM) | MIC ([3]; E. coli KU1031, mutant type SP): 0.031 µg/mL (≈ 0.079 µM) | MIC ([3]; E. coli KU1032, mutant type SP): 0.125 µg/mL (≈ 0.319 µM) | MIC ([3]; E. coli KU1033, mutant type SP): 0.031 µg/mL (≈ 0.079 µM) | MIC ([3]; E. coli KU1034, mutant type GA (DNA gyrase A)): 0.5 µg/mL (≈ 1.27 µM) | MIC ([3]; E. coli KU1035, mutant type GA (DNA gyrase A)): 0.5 µg/mL (≈ 1.27 µM) | MIC ([3]; E. coli KU1036, mutant type GB (DNA gyrase B)): 0.063 µg/mL (≈ 0.161 µM) | MIC ([3]; E. coli KU1038, mutant type SP): 0.031 µg/mL (≈ 0.079 µM) | MIC ([3]; E. coli KU1039, mutant type SP): 0.25 µg/mL (≈ 0.637 µM) | MIC ([3]; E. coli KU1040, mutant type SP): ≤ 0.008 µg/mL | MIC ([3]; E. coli KU1041, mutant type SP): 0.25 µg/mL (≈ 0.637 µM) | MIC ([3]; E. coli KU1042, mutant type SP): 0.063 µg/mL (≈ 0.161 µM) | MIC90 [4]: 1 µg/mL (≈ 2.55 µM) | MIC Range [4]: 0.25 to 1 µg/mL | MIC50 ([4]; read-out: MIC50): 0.5 µg/mL (≈ 1.27 µM) | MIC50 ([5]; Enterococcus faecium (n=39)): 32 µg/mL (≈ 81.5 µM) | MIC90 ([5]; Enterococcus faecium (n=39)): 64 µg/mL (≈ 163 µM) | MIC Range ([5]; Enterococcus faecium (n=39)): 0.5 to 128 µg/mL | MIC ([5]; Enterococcus faecium (vanA) vancomycin resistant, strain TMS1): 32 µg/mL (≈ 81.5 µM) | MIC ([5]; Enterococcus faecium (vanA) vancomycin resistant, strain TMS2): 0.5 µg/mL (≈ 1.27 µM) | MIC ([5]; Enterococcus faecium (vanA) vancomycin resistant, strain TMS3): 64 µg/mL (≈ 163 µM) | MIC ([5]; Enterococcus faecium (vanA) vancomycin resistant, strain TMS4): 64 µg/mL (≈ 163 µM) | MIC ([5]; Enterococcus faecium (vanA) vancomycin resistant, strain TMS5): 2 µg/mL (≈ 5.1 µM) | MIC ([5]; Enterococcus laecium (van B) vancomycin resistant, strain TMS6): 64 µg/mL (≈ 163 µM) | MIC ([5]; Enterococcus laecium (van B) vancomycin resistant, strain TMS7): 32 µg/mL (≈ 81.5 µM) | MIC ([6]; strain TMS1): 0.25 µg/mL (≈ 0.637 µM) | MIC ([6]; strain TMS2): 0.5 µg/mL (≈ 1.27 µM) | MIC ([6]; strain TMS3): 0.5 µg/mL (≈ 1.27 µM) | MIC ([6]; strain TMS4): 0.25 µg/mL (≈ 0.637 µM) | MIC50 [7]: 0.032 µg/mL (≈ 0.0815 µM) | MIC Range [7]: 0.016 to 2 µg/mL | MIC90 ([7]; read-out: MIC90): 0.063 µg/mL (≈ 0.161 µM) | MIC50 [8]: 0.063 µg/mL (≈ 0.161 µM) | MIC90 [8]: 8 µg/mL (≈ 20.4 µM) | MIC Range [8]: 0.016 to 32 µg/mL | MIC Range [9]: 0.016 to 0.25 µg/mL | MIC50 ([9]; Klebsiella aerogenes): 0.032 µg/mL (≈ 0.0815 µM) | MIC90 ([9]; Klebsiella aerogenes): 0.063 µg/mL (≈ 0.161 µM) | MIC50 [10]: 0.032 µg/mL (≈ 0.0815 µM) | MIC90 [10]: 1 µg/mL (≈ 2.55 µM) | MIC Range [10]: ≤0.008 to 2 µg/mL | MIC Range [11]: 0.063 to 16 µg/mL | MIC50 ([11]; read-out: MIC50): 0.25 µg/mL (≈ 0.637 µM) | MIC90 ([11]; read-out: MIC90): 0.5 µg/mL (≈ 1.27 µM) | MIC [12]: 2 µg/mL and 0.125 µg/mL | MIC ([12]; Bacteroides eggerthii, ATCC27754, Bacteroides eggerthii ATCC27754, read-out: MIC): 4 µg/mL (≈ 10.2 µM) | MIC ([12]; Bacteroides fragilis, ATCC25285, Bacteroides fragilis ATCC25285, read-out: MIC): 1 µg/mL (≈ 2.55 µM) | MIC ([12]; Bacteroides fragilis, Bacteroides fragilis GA15562, read-out: MIC): 1 µg/mL (≈ 2.55 µM) | MIC ([12]; Bacteroides fragilis, Bacteroides fragilis GA-I0558, read-out: MIC): 1 µg/mL (≈ 2.55 µM) | MIC ([12]; Bacteroides fragilis, Bacteroides fragilis GA-I7955, read-out: MIC): 1 µg/mL (≈ 2.55 µM) | MIC ([12]; Bacteroides fragilis, Bacteroides fragilis GAI10150, read-out: MIC): 1 µg/mL (≈ 2.55 µM) | MIC ([12]; Bacteroides fragilis, Bacteroides fragilis GAI30079, read-out: MIC): 2 µg/mL (≈ 5.1 µM) | MIC ([12]; Bacteroides fragilis, Bacteroides fragilis GAI30144, read-out: MIC): 1 µg/mL (≈ 2.55 µM) | MIC ([12]; Bacteroides fragilis, NCTC10581, Bacteroides fragilis NCTC10581, read-out: MIC): 1 µg/mL (≈ 2.55 µM) | MIC ([12]; Bacteroides ovatus, ATCC8483, Bacteroides ovatus ATCC8483, read-out: MIC): 2 µg/mL (≈ 5.1 µM) | MIC ([12]; Bacteroides thetaiotaomicron, ATCC29741, Bacteroides thetaiotaomicron ATCC29741, read-out: MIC): 2 µg/mL (≈ 5.1 µM) | MIC ([12]; Bacteroides uniformis, ATCC8492, Bacteroides uniformis ATCC8492, read-out: MIC): 1 µg/mL (≈ 2.55 µM) | MIC ([12]; Bilophilla wadsworthia WAL7959, read-out: MIC): 0.5 µg/mL (≈ 1.27 µM) | MIC ([12]; Campylobacter gracilis, JCM8538, Campylobacter gracilis JCM8538, read-out: MIC): ≤ 0.03 µg/mL | MIC ([12]; Campylobacter ureolyticus, NCTC10941, Bacteroides ureolyticus NCTC10941, read-out: MIC): 0.06 µg/mL (≈ 0.153 µM) | MIC ([12]; Capnocytophaga ochracea, Capnocytophaga ochracea GAI5586, read-out: MIC): ≤ 0.03 µg/mL | MIC ([12]; Desullomonas pigra DSM749, read-out: MIC): 0.06 µg/mL (≈ 0.153 µM) | MIC ([12]; Fusobacterium necrophorum, ATCC25286, Fusobacterium necrophorum ATCC25286, read-out: MIC): 1 µg/mL (≈ 2.55 µM) | MIC ([12]; Fusobacterium nucleatum, ATCC25586, Fusobacterium nucleatum ATCC25586, read-out: MIC): 1 µg/mL (≈ 2.55 µM) | MIC ([12]; Fusobacterium varium, ATCC8501, Fusobacterium varium ATCC8501, read-out: MIC): 8 µg/mL (≈ 20.4 µM) | MIC ([12]; Hoylesella oralis, ATCC33269, Prevotella oralis ATCC33269, read-out: MIC): 4 µg/mL (≈ 10.2 µM) | MIC ([12]; Parabacteroides distasonis, ATCC8503, Bacteroides distasonis ATCC8503, read-out: MIC): 2 µg/mL (≈ 5.1 µM) | MIC ([12]; Phocaeicola vulgatus, ATCC8482, Bacteroides vulgatus ATCC8482, read-out: MIC): 2 µg/mL (≈ 5.1 µM) | MIC ([12]; Porphyromonas asaccharolytica, ATCC25260, Porphyromonas asaccharolytica ATCC25260, read-out: MIC): 0.25 µg/mL (≈ 0.637 µM) | MIC ([12]; Prevotella bivia, ATCC29303, Prevotella bivia ATCC29303, read-out: MIC): 8 µg/mL (≈ 20.4 µM) | MIC ([12]; Prevotella buccaeATCC33574, read-out: MIC): 2 µg/mL (≈ 5.1 µM) | MIC ([12]; Prevotella corporis, Prevotella corporis GAI91000, read-out: MIC): 2 µg/mL (≈ 5.1 µM) | MIC ([12]; Prevotella heparinolytica, ATCC35895, Prevotella heparinolytica ATCC35895, read-out: MIC): 0.5 µg/mL (≈ 1.27 µM) | MIC ([12]; Prevotella melaninogenica, Prevotella melaninogenica GAI5490, read-out: MIC): 2 µg/mL (≈ 5.1 µM) | MIC ([12]; Segatella oris, ATCC33573, Prevotella oris ATCC33573, read-out: MIC): 2 µg/mL (≈ 5.1 µM) | MIC ([12]; Sutterella wadsworthensis, ATCC51579, Sutterella wadsworthensis ATCC51579, read-out: MIC): 0.25 µg/mL (≈ 0.637 µM) | MIC ([12]; Veillonella dispar, ATCC17748): 0.125 µg/mL (≈ 0.319 µM) | MIC ([12]; Veillonella parvula, ATCC10790, Veillonella parvula ATCC10790, read-out: MIC): 0.25 µg/mL (≈ 0.637 µM)
